Format in all cases: binding
One assay has as its target T1, KRAS G12V/RAF1 (Homo sapiens, UniProt P01116, G12V).
T1 construct: His6-MBP (N, cleaved yes); made in house; host or cells: E. coli
Put plainly: Protein-protein interaction (PPI) HTRF assay KRAS G12V/RAF1. The following applies: Table 3; KRASG12V/RAF1. As for the experimental part:
(§1) Biotinylated KRAS wt and KRAS G12DNV proteins were expressed and purified in conditions similar to those previously reported (Tran, et al., 2021) (Zhang, et al., 2020). Briefly, KRAS (1-169) proteins were expressed in E. coli at 18° C. with an upstream TEV cleavage site (ENLFYQS (SEQ ID NO: 6)) followed an Avi tag sequence ([…] (SEQ ID NO: 7)). KRAS expression constructs contained both a His6 (SEQ ID NO: 8) and maltose-binding protein (MBP) tags at the N-terminus for Ni-NTA column purification prior to overnight TEV cleavage and MBP column purification. The avi-tagged NRAS expression construct contained both a His6 tag (SEQ ID NO: 8) and SUMO cleavage sige at the N-terminus for Ni-NTA column purification followed by His-ULPi digestion overnight. […]
(§2) When RAS proteins are in the active GTP-bound conformation, they bind the effector protein RAF1 at the N-terminus Ras-binding domain (RBD, residues 52-131) (Tran, et al., 2021). Homogenous time resolved fluorescence (HTRF) was used to monitor the interaction between wt or mutant KRAS and RAF1 or wt NRAS and RAFT. […] The intensity of the fluorescence signal emitted is proportional to binding between the two proteins. […] The fluorescence signal emitted was monitored at 665 nm and 615 nm using an Envision multimode plate reader. […]

For a further assay, the target named is T2, w.t. NRAS/RAF1 (Homo sapiens, UniProt P01111).
T2 construct: His6-SUMO (N, cleaved yes); made in house; host or cells: E. coli (printed for KRAS and RAF1)
Put plainly: Protein-protein interaction (PPI) HTRF assay NRAS/RAF1. The following applies: Table 3; wtNRAS/RAF1. As for the experimental part: as §1, §2
In general terms: Time-resolved FRET reads energy transfer from a long-lived donor to a nearby acceptor.

A further assay deals with T3, w.t.KRAS/RAF1 (Homo sapiens, UniProt P01116).
T3 construct: His6-MBP (N, cleaved yes); made in house; host or cells: E. coli
Put plainly: Protein-protein interaction (PPI) HTRF assay w.t.KRAS/RAF1. The following applies: Table 3; wtKRAS/RAF1. As for the experimental part:
as §1, §2

Structures are written as SMILES.

T2 sequence (P01111 with tags, fused parts or gaps): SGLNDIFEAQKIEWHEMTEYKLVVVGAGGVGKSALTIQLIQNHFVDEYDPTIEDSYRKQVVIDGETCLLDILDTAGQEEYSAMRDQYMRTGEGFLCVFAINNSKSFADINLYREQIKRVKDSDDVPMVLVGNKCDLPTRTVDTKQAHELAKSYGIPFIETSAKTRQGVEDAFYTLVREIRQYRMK
T1 sequence (P01116 with tags, fused parts or gaps isoform P01116-2 G12V): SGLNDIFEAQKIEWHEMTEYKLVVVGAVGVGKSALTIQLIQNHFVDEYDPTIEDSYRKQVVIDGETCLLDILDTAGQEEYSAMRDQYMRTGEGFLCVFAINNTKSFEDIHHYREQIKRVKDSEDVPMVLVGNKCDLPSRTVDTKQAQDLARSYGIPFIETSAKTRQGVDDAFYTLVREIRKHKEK
T3 sequence (P01116 with tags, fused parts or gaps isoform P01116-2): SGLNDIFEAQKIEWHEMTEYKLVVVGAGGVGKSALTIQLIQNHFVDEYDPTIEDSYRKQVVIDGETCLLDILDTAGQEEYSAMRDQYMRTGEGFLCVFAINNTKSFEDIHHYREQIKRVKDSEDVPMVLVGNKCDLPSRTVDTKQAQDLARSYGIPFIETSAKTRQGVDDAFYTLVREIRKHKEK

The term IC50 denotes the midpoint of a concentration-inhibition curve. With `CN(C)C(=O)c1nn2c(c1Cl)CN(c1nc(OC[C@@]34CCCN3C[C@H](F)C4)nc(N3CC4(CCc5sc(N)c(C#N)c54)C3)c1C#N)CCC2` [Compound 2, 5-[6-(2-amino-3-cyano-spiro[5,6-dihydrocyclopenta[b]thiophene-4,3′-azetidine]-1′-yl)-5-cyano-2-[[(2R,8S)-2-fluoro-1,2,3,5,6,7-hexahydropyrrolizin-8-yl]methoxy]pyrimidin-4-yl]-3-chloro-N,N-dimethyl-4,6,7,8-tetrahydropyrazolo[1,5-a][1,4]diazepine-2-carboxamide], the IC50 against KRAS G12V/RAF1 is 1 to 10 µM; on w.t. NRAS/RAF1, more than 100 µM; on w.t.KRAS/RAF1, 1 to 10 µM.

Turning to `CN(C)C(=O)c1nn2c(c1Cl)CN(c1nc(OC[C@@]34CCCN3C[C@H](F)C4)nc(N3CC4(CCCc5sc(N)c(C#N)c54)C3)c1C#N)CCC2` [Compound 3, 5-[6-(2-amino-3-cyano-spiro[6,7-dihydro-5H-benzothiophene-4,3′-azetidine]-1′-yl)-5-cyano-2-[[(2R,8S)-2-fluoro-1,2,3,5,6,7-hexahydropyrrolizin-8-yl]methoxy]pyrimidin-4-yl]-3-chloro-N,N-dimethyl-4,6,7,8-tetrahydropyrazolo[1,5-a][1,4]diazepine-2-carboxamide], the IC50 on KRAS G12V/RAF1 was 10 to 100 µM; on w.t. NRAS/RAF1 it was more than 100 µM.

The record behind these values is US12145947B2, “Pyrimidine based modulators and uses thereof” (Quanta Therapeutics, Inc., priority 2022, dated 2024).
